Experimental data from patent publication US12285034B2, “Human and non-human animal use of microbial anaplerotic oil” (HELIAE DEVELOPMENT, LLC, priority 2017, dated 2025).
Where “and” joins values, the source holds several entries; their conditions need not be identical. Equal entries are not always repeated. Where two headings read alike, the source gives them in different places.

Columns and labels:
[1] = system: Aurantiochytrium acetophilum HS399; format: cell-based
Method: In this implementation, initially (24 h incubation), the culture pH may not be controlled, and the pH of the respective treatments can drift from 7.5 to 8. After 24 h incubation, the desired pH set point of each treatment can be set using the respective organic acids. […] The cultures are aerated at 1.4 vvm and maintained at 27° C. under axenic conditions. […] This medium also contains a trace element solution (5 ml/L) and a vitamin solution (1 ml/L). The trace element solution can contain (g/L): […] […] Residual glucose is analyzed from culture supernatant (5000 g; 5 min) using a colorimetric method based on glucose […] activity. Residual acetate and propionate are analyzed by HPLC using external standard.

[2] = system: Yarrowia lipolytica ATCC18944; format: cell-based; settings: for Total Fatty Acids / Total Lipids: 168 h
Method: Culture conditions. In one implementation, Yarrowia lipolytica ATCC18944 can be cultivated in triplicates (n=3) in a medium containing (g/L): glycerol (80), monosodium […]), yeast extract (1), NaCl (12.5), MgSO4 (7), H2O (2.5), KCl (0.5), CaCl2 (0.1), KH2PO4 (0.5), trace metal solution (5 mL) and vitamin solution (1 mL). The trace element solution may contain (g/L): […] The vitamin solution can be filter-sterilized (e.g., using 0.2 μm pore size filter) containing (mg L-1): thiamine (100), biotin (0.5) and cyanocobalamin (0.5) unless otherwise stated. In some implementations cyanocobalamin might be added to or subtracted from the medium formulation to change or impact propionic acid deposition in OCFA. […] In one implementation, a concentration of the cyanocobalamin and/or cobalt in the culture medium can be below 0.4 μM. […] The flasks can be incubated in the dark in an orbital shaker at 180 rpm, 27° C. In this implementation, sodium propionate is fed batch every day according to respective treatments. […] Analyses. Cell dry weights can be obtained by drying samples that are previously vacuum filtrated (e.g., using 0.2 μm pore size filters). Residual propionate is analyzed directly by high performance liquid chromatography (HPLC). Lipids and total fatty acids are analyzed using a direct extraction, transesterification followed by gas chromatography (GC) and detection by flame ionization (FID). The different fatty acids are identified and quantified using appropriate internal and external standards. Propionic acid deposition rate.

[3] = system: Aurantiochytrium acetophilum HS399; experiment: Propionic acid toxicity lethal threshold (Example 8); format: cell-based; settings: for lethal threshold, Propionate Treatment (initial propionate): initial propionate approach, chronic, metric CDW, pH 6.4
[4] = system: Aurantiochytrium acetophilum HS399; experiment: Cyanocobalamin and propionate deposition, flask (Example 10); format: cell-based; settings: for Final Propionate: initial 3 g/L; for Cell dry weight: propionate 3 g/L
Y. lipolytica = experiment: Model of cytoplasmic propionate in Yarrowia lipolytica; settings: 2 g/L d propionic fed, pH 3
From the text: In this aspect, while the propionate and free proton form enters the microalgae cell through a monocarboxylic symport structure, propionic acid is membrane permeable and may be diffused directly into the microalgae cell. Therefore, in this aspect, the uptake of propionate can be controlled by the cell, and the uptake of propionic acid may not be controlled by the cell. As an example, the uncontrolled uptake of propionic acid presumably lowers the internal Aurantiochytrium cell pH; in turn, the cell attempts to maintain its pH homeostasis by pumping protons out of the cell. […] In one implementation, the change in pH may be calculated with the following equation derived from the Henderson and Hasselbalch equation: […]
In these implementations, the results illustrate that growth of the Y. lipolytica may not be affected by up to 2 g/L d propionic fed despite the low pH (3) present.

mold and bacteria = settings: low levels; cited from earlier work
[5] = daily propionate 0+0+1+1+1+1 g/L
[6] = daily propionate 0+0+2+2+2+2 g/L
[7] = 192 h, itaconic acid 0 / propionate 6 g/L

In the case of CCC(=O)O [Propionate, propionic acid], the “effect on growth (cell dry weight, glucose)” value [1] is reported as “highly growth inhibitory”, the “Consumed propionate” value ([1]; pH 5 set point) is reported as 2.3 ± 0.2 g/L and the “Propionic Acid Deposited” value ([1]; pH 5 set point) is reported as 30.9 ± 2.0%. The “Consumed propionate” value ([1]; pH 6 set point) was 2.4 ± 0.1 g/L, the “Propionic Acid Deposited” value ([1]; pH 6 set point) was 40.3 ± 1.6% and the “effect on growth (cell dry weight)” value ([1]; pH 7) was “not growth inhibitory”. The “Consumed propionate” value ([1]; pH 7 set point) was 1.0 ± 0.1 g/L, the “Propionic Acid Deposited” value ([1]; pH 7 set point) was 24.7 ± 1.0% and the “Total Fatty Acid” value ([1]; propionic acid titrant, pH 5) was 59.2 ± 3.1 % CDW. For the same compound, the “Total Lipids” value ([1]; propionic acid titrant, pH 5) was 75.0 ± 3.0 % CDW, the “Total Fatty Acid” value ([1]; propionic acid titrant, pH 6) was 63.4 ± 0.3 % CDW and the “Total Lipids” value ([1]; propionic acid titrant, pH 6) was 79.5 ± 1.5 % CDW. For the same compound, the OCFA ([1]; propionic acid titrant, pH 7) was 6.3 % TFA, the “Total Fatty Acid” value ([1]; propionic acid titrant, pH 7) was 70.3 ± 2.8 % CDW and the “Total Lipids” value ([1]; propionic acid titrant, pH 7) was 87.5 ± 1.5 % CDW. The “daily propionic feed not affecting growth” value [2] was “up to 2 g/L d”, the “Total Fatty Acids” value [2, 5] was 17.3 ± 1.6 % DW and the “Total Lipids” value [2, 5] was 19.0 ± 0.0 % DW. For the same compound, the “Total Fatty Acids” value [2, 6] was 16.2 ± 0.5 % DW, the “Total Lipids” value [2, 6] was 18.3 ± 0.6 % DW and the “Total Fatty Acids” value ([2]; daily propionate 0 + 0.6 g/L) was 21.3 ± 2.8 % DW. The “Total Lipids” value ([2]; daily propionate 0 + 0.6 g/L) was 21.7 ± 3.2 % DW, the “Total Fatty Acids” value ([2]; daily propionate 0.3 + 0.3 g/L) was 21.7 ± 2.5 % DW and the “Total Lipids” value ([2]; daily propionate 0.3 + 0.3 g/L) was 23.7 ± 3.5 % DW. For the same compound, the Cell dry weight [2, 7] was 8.3 ± 1.2 g/L, the Consumed propionate [2, 7] was 5.1 ± 1.5 g/L and the “Odd chain fatty acids” value [2, 7] was 1.3 ± 0.5 % DW. For the same compound, the Propionic acid deposition [2, 7] was 0.6 ± 0.1%, the “growth on propionate as sole carbon source” value ([2]; FIG. 25) was “able to grow” and the Consumed propionate ([2]; cyanocobalamin 0 μM) was 2.6 g/L. It also gave a Propionate deposition ([2]; cyanocobalamin 0 μM) of 0.99%, a Consumed propionate ([2]; cyanocobalamin 0.00037 μM) of 1.7 g/L and a Propionate deposition ([2]; cyanocobalamin 0.00037 μM) of 0.83%. The Cell dry weight ([2]; propionate 0+0+2+2+2+2 g/L d, cyanocobalamin 0 μM) was 6.0 g/L, the Cell dry weight ([2]; propionate 0+0+2+2+2+2 g/L d, cyanocobalamin 0.00037 μM) was 5.3 g/L and the “propionic acid deposition rates in OCFAs” value ([2]; relatively low) was < 3 % TFA. The OCFAs ([2]; total propionate fed batch 8 g/L) was 0.33 g/L, the “lethal threshold, Propionate Treatment (initial propionate)” value ([3]; listed as Propionic acid) was 20 g/L and the “lethal threshold, Propionate Treatment (initial propionate)” value ([3]; listed as propionate) was 20 g/L and 30 g/L. For the same compound, the “lethal threshold, Propionate Treatment” value ([3]; pH drift approach, acute, metric OUR, pH 5.3) was 2.3 ± 0.1 g/L, the “pH at which oxygen uptake rate dropped (tolerance limit)” value ([3]; residual propionate 2.3-2.4 g/L, pH ramp 7 to 4) was 5.3 and the Propionate deposition ([4]; cyanocobalamin 0 μM, listed as Propionic acid) was 99.9 ± 5.8 % fed. It also gave a Propionate deposition ([4]; cyanocobalamin 0 μM, listed as propionate) of 99.5 % fed, a Propionate deposition ([4]; cyanocobalamin 0.00037 μM) of 47.0 ± 0.9 % fed and a Propionate deposition ([4]; cyanocobalamin 0.37 μM) of 10.3 ± 1.0 % fed. The “Final Propionate” value ([4]; cyanocobalamin 0 μM) was 0.36 g/L, the “Final Propionate” value ([4]; cyanocobalamin 0.00037 μM) was 0.1 g/L and the “Final Propionate” value ([4]; cyanocobalamin 0.37 μM) was 0.06 g/L. The Cell dry weight ([4]; cyanocobalamin 0 μM) was 35.0 ± 1.2 g/L, the Cell dry weight ([4]; cyanocobalamin 0.00037 μM) was 32.0 ± 0.7 g/L and the Cell dry weight ([4]; cyanocobalamin 0.37 μM) was 37.0 ± 1.4 g/L. The “accumulation of cytoplasmic propionate” value (Y. lipolytica) was 328 g/L and the “level inhibiting growth of mold and bacteria” value (mold and bacteria) was < 1 % by weight.
